Assay in all cases: CXCR6 receptor antagonists, dose response, cell-based, beta-arrestin, DiscoveRx, APJ panel, uHTS hits (AID 624129)
In experiment [1] the target is Apelin receptor (Homo sapiens) (UniProt P35414). The conditions noted are these: CXCR6 beta-arrestin (DiscoveRx) antagonist cell assay, APJ.
For experiment [2], the target named is Beta-galactosidase (Escherichia coli) (UniProt Q8VNN2). The conditions noted are these: CXCR6 beta-arrestin (DiscoveRx) antagonist cell assay, b-galactosidase.
Beta-galactosidase (Escherichia coli), sequence (Q8VNN2 whole entry, looked up): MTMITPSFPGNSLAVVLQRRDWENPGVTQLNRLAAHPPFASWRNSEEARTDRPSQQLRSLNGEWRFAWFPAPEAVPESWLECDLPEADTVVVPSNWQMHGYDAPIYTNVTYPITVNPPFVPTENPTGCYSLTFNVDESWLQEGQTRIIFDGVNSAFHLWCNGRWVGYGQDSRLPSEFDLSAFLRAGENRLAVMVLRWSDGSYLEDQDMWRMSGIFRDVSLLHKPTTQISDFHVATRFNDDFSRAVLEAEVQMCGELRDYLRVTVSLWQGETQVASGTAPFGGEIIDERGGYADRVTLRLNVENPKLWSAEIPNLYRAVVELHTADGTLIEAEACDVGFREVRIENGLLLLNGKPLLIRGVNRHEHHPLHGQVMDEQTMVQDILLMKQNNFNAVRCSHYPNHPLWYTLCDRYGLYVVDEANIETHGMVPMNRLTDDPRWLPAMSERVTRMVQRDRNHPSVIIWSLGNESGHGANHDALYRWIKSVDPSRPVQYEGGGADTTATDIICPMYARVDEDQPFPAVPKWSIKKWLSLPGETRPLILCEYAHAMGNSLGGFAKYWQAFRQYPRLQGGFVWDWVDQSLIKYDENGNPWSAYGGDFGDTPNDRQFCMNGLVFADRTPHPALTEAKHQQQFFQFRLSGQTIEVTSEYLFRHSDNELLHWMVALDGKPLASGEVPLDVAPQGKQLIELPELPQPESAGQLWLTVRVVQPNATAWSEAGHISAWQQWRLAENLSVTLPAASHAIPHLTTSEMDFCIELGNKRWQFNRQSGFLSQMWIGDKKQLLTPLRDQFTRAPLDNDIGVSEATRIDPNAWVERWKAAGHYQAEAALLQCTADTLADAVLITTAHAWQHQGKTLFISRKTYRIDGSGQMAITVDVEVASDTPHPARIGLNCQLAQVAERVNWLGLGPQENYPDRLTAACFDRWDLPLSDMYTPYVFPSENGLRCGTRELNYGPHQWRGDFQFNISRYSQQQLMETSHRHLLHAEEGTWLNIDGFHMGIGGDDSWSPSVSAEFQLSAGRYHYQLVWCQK
Experiment [3] addresses C-C chemokine receptor type 6 (Homo sapiens) (UniProt P51684). As to conditions: CXCR6 beta-arrestin (DiscoveRx) antagonist cell assay.
Experiment [4] deals with C-X-C chemokine receptor type 6 (Homo sapiens) (UniProt O00574). As to conditions: CXCR6 beta-arrestin (DiscoveRx) antagonist cell assay; for inhibition: CXCR6, run 1, dose range 2, at 80 µM (top of the series).
C-X-C chemokine receptor type 6 (Homo sapiens), sequence (O00574 whole entry, looked up): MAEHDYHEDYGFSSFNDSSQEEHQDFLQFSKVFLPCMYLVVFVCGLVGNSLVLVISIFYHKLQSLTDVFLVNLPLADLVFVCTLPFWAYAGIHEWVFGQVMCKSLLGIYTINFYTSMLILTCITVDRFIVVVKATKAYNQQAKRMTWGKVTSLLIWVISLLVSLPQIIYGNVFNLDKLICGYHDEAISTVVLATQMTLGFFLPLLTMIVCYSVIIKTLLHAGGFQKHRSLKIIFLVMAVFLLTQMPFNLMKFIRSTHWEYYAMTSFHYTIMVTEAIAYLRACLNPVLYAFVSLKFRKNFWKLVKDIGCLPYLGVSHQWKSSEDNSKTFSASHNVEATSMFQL
[5] abbreviates: dose range 1, mean IC50 across replicates.
Setting [6] is: CCR6, dose range 1, mean IC50 across replicates.
[7] abbreviates: CXCR6, dose range 1, mean IC50 across replicates.

The source made the active and inactive calls. The rule behind the calls is not given here.

For orientation: IC50 means the concentration needed to halve the response being measured. The inhibition is the change of the read-out against control, counted positive when it falls. Turning to `CC(=O)Nc1ccc(NCC(=O)c2ccccc2)cc1`, the IC50 in experiment [1] (setting [5]) was 26.2 µM; in experiment [1] (run 2, dose range 1), 24.9 µM; in experiment [1] (run 3, dose range 1), 27.5 µM; in experiment [2] (setting [5]), 58.9 µM; in experiment [3] (CCR6, dose range 1), 28.9 µM; in experiment [3] (setting [6]), 26.3 µM. The concentration for half-maximal inhibition (IC50) in experiment [3] (CCR6, run 2, dose range 1) stood at 23.7 µM; in experiment [4] (setting [7]), 23.7 µM; in experiment [4] (CXCR6, run 2, dose range 1), 21.9 µM. The IC50 entry in experiment [2] (dose range 1) is “inactive”; in experiment [4] (CXCR6, dose range 1), “inactive”. Also, the inhibition in experiment [4] turned out to be 62%.

With `COc1ccc(CCN2C(=O)C=CC2=O)cc1OC`, the concentration for half-maximal inhibition (IC50) in experiment [1] (dose range 1) is 9.45 µM; in experiment [1] (setting [5]), 21.1 µM; in experiment [1] (run 2, dose range 1), 8.84 µM; in experiment [1] (run 3, dose range 1), 45.1 µM; in experiment [2] (dose range 1), > 80 µM (inactive); in experiment [2] (setting [5]), more than 80 µM. Moreover, the IC50 is 4.86 µM in experiment [3] (CCR6, dose range 1); 6.32 µM in experiment [3] (setting [6]); 7.78 µM in experiment [3] (CCR6, run 2, dose range 1); 9.39 µM in experiment [4] (CXCR6, dose range 1); 8.38 µM in experiment [4] (setting [7]); 7.37 µM in experiment [4] (CXCR6, run 2, dose range 1). For the same compound, the inhibition in experiment [4] is 122%.

In the case of `O=C1C(=C(c2ccccc2)N2CCOCC2)Cc2ccccc21`, the IC50 is 15.3 µM in experiment [1] (dose range 1); 13.2 µM in experiment [1] (setting [5]); 11.8 µM in experiment [1] (run 2, dose range 1); 12.5 µM in experiment [1] (run 3, dose range 1); > 80 µM (inactive) in experiment [2] (dose range 1); more than 80 µM in experiment [2] (setting [5]). The IC50 was 8.91 µM in experiment [3] (CCR6, dose range 1); 8.89 µM in experiment [3] (setting [6]); 8.87 µM in experiment [3] (CCR6, run 2, dose range 1); 8.74 µM in experiment [4] (CXCR6, dose range 1); 9.51 µM in experiment [4] (setting [7]); 9.93 µM in experiment [4] (CXCR6, run 1, dose range 2). Moreover, the half-maximal inhibitory concentration (IC50) came out at 10.3 µM in experiment [4] (CXCR6, run 2, dose range 1) and 9.08 µM in experiment [4] (CXCR6, run 2, dose range 2).

Turning to `O=C(Nc1nnc(-c2cccs2)o1)c1cccc(C(F)(F)F)c1`, the concentration for half-maximal inhibition (IC50) is more than 80 µM in experiment [1] (setting [5]); more than 80 µM in experiment [1] (run 2, dose range 1); more than 80 µM in experiment [1] (run 3, dose range 1); > 80 µM (inactive) in experiment [2] (dose range 1); more than 80 µM in experiment [2] (setting [5]); more than 80 µM in experiment [3] (setting [6]). Besides, the half-inhibitory concentration (IC50) in experiment [3] (CCR6, run 2, dose range 1) was more than 80 µM; in experiment [4] (CXCR6, dose range 1) it was > 80 µM (inactive); in experiment [4] (setting [7]), more than 80 µM; in experiment [4] (CXCR6, run 2, dose range 1), more than 80 µM. Further, in experiment [4], the inhibition was -55.9%.

As to `Cc1cccc(C(=O)Nc2ccc(C(=O)/C=C/c3ccncc3)cc2)c1`, the half-maximal inhibitory concentration (IC50) in experiment [1] (setting [5]) was more than 80 µM; in experiment [1] (run 2, dose range 1) it was more than 80 µM; in experiment [1] (run 3, dose range 1) it was more than 80 µM; in experiment [2] (dose range 1), > 80 µM (inactive); in experiment [2] (setting [5]), more than 80 µM; in experiment [3] (setting [6]), more than 80 µM. The IC50 in experiment [3] (CCR6, run 2, dose range 1) was more than 80 µM; in experiment [4] (CXCR6, dose range 1), > 80 µM (inactive); in experiment [4] (setting [7]), more than 80 µM; in experiment [4] (CXCR6, run 2, dose range 1), more than 80 µM. Also, in experiment [4], the inhibition was -26.4%.

Regarding `CC(C)(C)C(=O)NC(=S)NNC(=O)c1sc2ccccc2c1Cl`, the concentration for half-maximal inhibition (IC50) was 24.4 µM in experiment [1] (dose range 1); 18.1 µM in experiment [1] (setting [5]); 15.2 µM in experiment [1] (run 2, dose range 1); 14.7 µM in experiment [1] (run 3, dose range 1); > 80 µM (inactive) in experiment [2] (dose range 1); more than 80 µM in experiment [2] (setting [5]). Further, the half-inhibitory concentration (IC50) in experiment [3] (setting [6]) is 34 µM; in experiment [3] (CCR6, run 2, dose range 1), 34 µM; in experiment [4] (CXCR6, dose range 1) it was > 80 µM (inactive); in experiment [4] (setting [7]), more than 80 µM; in experiment [4] (CXCR6, run 2, dose range 1) it was more than 80 µM. The inhibition in experiment [4] came to 63.6%.

For the compound `O=C(Nc1nnc(SCc2ccc(F)cc2)s1)c1ccccn1`, the IC50 is 3.1 µM in experiment [1] (dose range 1); 3.6 µM in experiment [1] (setting [5]); 3.87 µM in experiment [1] (run 2, dose range 1); 3.84 µM in experiment [1] (run 3, dose range 1); > 80 µM (inactive) in experiment [2] (dose range 1); more than 80 µM in experiment [2] (setting [5]). Further, the IC50 was 4.29 µM in experiment [3] (CCR6, dose range 1); 4.53 µM in experiment [3] (setting [6]); 4.78 µM in experiment [3] (CCR6, run 2, dose range 1); 4.08 µM in experiment [4] (setting [7]); 5.5 µM in experiment [4] (CXCR6, run 1, dose range 2); 3.49 µM in experiment [4] (CXCR6, run 2, dose range 1). Further, the IC50 in experiment [4] (CXCR6, run 2, dose range 2) was 3.25 µM.

Take `CNC(=O)c1nnsc1S(=O)(=O)c1ccc(Cl)cc1`: the IC50 in experiment [1] (dose range 1) was 14.3 µM; in experiment [1] (setting [5]), 15.7 µM; in experiment [1] (run 2, dose range 1) it was 16.1 µM; in experiment [1] (run 3, dose range 1) it was 16.5 µM; in experiment [2] (dose range 1), > 80 µM (inactive); in experiment [2] (setting [5]) it was more than 80 µM. For the same compound, the half-maximal inhibitory concentration (IC50) was 10.5 µM in experiment [3] (CCR6, dose range 1); 12 µM in experiment [3] (setting [6]); 13.5 µM in experiment [3] (CCR6, run 2, dose range 1); 12.1 µM in experiment [4] (setting [7]); 10.7 µM in experiment [4] (CXCR6, run 2, dose range 1). Moreover, in experiment [4] (CXCR6, dose range 1), the IC50 result is “inactive”. For the same compound, in experiment [4], the inhibition was determined as 116%.

The values are drawn from PubChem BioAssay AID624129 (Sanford-Burnham Center for Chemical Genomics, 2012).
